Results: publication PMC9207808 (ACS Chemical Biology, 2022)
“Also recorded” adds a separate entry of the source. Residues, ends and D or L forms follow the SMILES beside them.

Assays:
DocSTm [1] = experiment: Dot blot phosphorylation assay (EF-Tu phosphorylation by Doc); assay type: biochemical, S. Typhimurium; conditions: α-pThr, DocSTm 1 μM, EF-TuSTm 3 μM, ATP 1 mM, inhibitor 10 μM to 5 nM (3-fold dilutions), 16 h at RT
Procedure: Samples were prepared to a final volume of 10 μL. […] Samples were incubated for 16 h at RT and subsequently spotted on a nitrocellulose membrane. Phosphorylated EF-Tu was detected by immunodecoration using a rabbit monoclonal antiphosphothreonine antibody (Abcam, ab218195) at 1:2000 dilution (1 h at 4 °C), followed by incubation with a goat antirabbit IgG (H+L) HRP conjugate antibody (Advansta) at 1:10 000 dilution (1 h at RT). Chemiluminescence was developed using the HRP Luminata kit (Merck, WBLUR0100) and captured by an ImageQuant LAS4000 Western blot imaging system (Cytiva).

DocSTm [2] = experiment: Differential scanning fluorimetry (thermal stabilisation of Doc); assay type: binding, S. Typhimurium; conditions: for melting temperature shift ΔTm: DSF, DocSTm 5 μM, analyte 50 μM, Tm with analyte minus Tm of free DocSTm (42.9 ± 0.9 °C), SYPRO Orange, 20 mM K2HPO4, 50 mM (NH4)2SO4, pH 8.0, triplicate; for Average Tm / Tm: DocSTm 5 µM + 50 µM binder; for Average Tm: average of 3 replicates
Procedure: Experiments were performed in a Mx3005P qPCR System (Agilent) collecting fluorescence data with a temperature ramp of 25 to 95 °C. Samples were prepared in a buffer containing 20 mM K2HPO4 and 50 mM (NH4)2SO4 at pH 8.0. The SYPRO Orange dye (Sigma-Aldrich, 5000× stock in DMSO) was used to monitor protein denaturation and was diluted to a final concentration of 3×. For binding experiments, the final concentration of Doc was 5 μM. Each condition was performed in triplicate (ESI section 4) and the melting curves were plotted using GraphPad Prism 5 (GraphPad Software, U.S.A.). The melting temperatures were obtained by fitting the sigmoidal section of the curves to a Boltzmann sigmoid function.

DocSTm [3] = experiment: Surface plasmon resonance binding to immobilised Doc; set-up: species or system S. Typhimurium; conditions: for koff × 10^-6 / kon × 10^6: 1:1 kinetic fit, mean ± SD of at least 3 replicates; for kon × 10^6: single-cycle kinetics (multicycle for PhdSTm1-73); for Half-life of the complex: t1/2 = ln2 / koff
Procedure: Experiments were performed in a Biacore S200 (Cytiva) with a Series S sensor chip NTA (Cytiva). The data was analyzed using the Biacore Evaluation Software (Cytiva) and curves were plotted using GraphPad Prism 5 (GraphPad Software, U.S.A.). All experiments were performed at 22 °C with a running buffer containing 10 mM HEPES, 500 mM NaCl, 50 μM EDTA, and 0.005% (v/v) TWEEN 20 at pH 8.0. The surface was conditioned following the standard manufacturer’s guidelines and protein immobilization was performed with a 30–60 s pulse (flow rate of 5 μL/min) of Doc (150 nM) in running buffer. […] Surface regeneration was performed with a 1 min pulse of 0.5 M imidazole followed by a 1 min pulse of 0.35 M of EDTA at pH 8.0.
Binding to Doc was performed using a multicycle kinetics (MCK) setup for peptides 7, 10, and 14, while the remaining samples were tested using a single-cycle kinetics (SCK) setup. The surface was fully regenerated in between each analyte in both cases. In the MCK experiments, increasing concentrations of each analyte were injected with an 80 s pulse (30 μL/min) and dissociation times varied depending on the time required to fully dissociate the complex. The double-referenced sensorgrams (raw data subtracted from a blank injection and reference surface responses) were analyzed using a kinetic and/or a steady-state 1:1 binding model. In the SCK experiments, typically six concentrations of each analyte were sequentially injected with 80 s pulses (30 μL/min), and dissociation times varied depending on the time required to dissociate at least 5% of the complex. The double-referenced sensorgrams were fitted using a kinetic 1:1 binding model.
At least three independent replicates were measured for each analyte (ESI section 5). When a steady-state fit was applied, the reported Kd and its uncertainty correspond, respectively, to the average and standard deviations of the Kd obtained in each measurement. When a kinetic fit was applied, the reported rate constants (kon and koff) and their uncertainties correspond, respectively, to the average and standard deviations of the rate constants obtained in each measurement. In this case, reported Kd were calculated using the equation below, and the standard deviation of the rate constants was propagated. [drawing 1]

[4] = SPR, kinetic fit, KD calculated from mean koff and kon, SD propagated, 22 °C, pH 8.0

Structure (SMILES) | inhibition of EF-TuSTm phosphorylation by DocSTm (in words) (DocSTm [1]) | melting temperature shift ΔTm (DocSTm [2]) | Average Tm (DocSTm [2]) | Tm (DocSTm [2]; replicate 1) | Tm (DocSTm [2]; replicate 2) | Tm (DocSTm [2]; replicate 3) | Kd (DocSTm [3]; SPR kinetic fit, replicate 1) | Kd (DocSTm [3]; SPR kinetic fit, replicate 2) | Kd (DocSTm [3]; SPR kinetic fit, replicate 3) | koff × 10^-6 (DocSTm [3]; SPR, 22 °C, pH 8.0) | kon × 10^6 (DocSTm [3]; SPR, 22 °C, pH 8.0) | Kd (DocSTm [3]; [4]) | Half-life of the complex (DocSTm [3])
CC[C@H](C)[C@H](NC(=O)[C@H](C)NC(=O)[C@H](C)NC(=O)[C@H](Cc1ccccc1)NC(=O)[C@H](CCC(=O)O)NC(=O)[C@H](Cc1c[nH]c2ccccc12)NC(C)=O)C(=O)N[C@@H](CCSC)C(=O)N[C@@H](C)C(=O)N[C@H](C(=O)N[C@@H](Cc1c[nH]cn1)C(=O)NCC(=O)N[C@@H](CC(N)=O)C(=O)N[C@@H](CCC(=O)O)C(=O)N[C@@H](CC(C)C)C(=O)N[C@@H](CCCNC(=N)N)C(=O)N[C@@H](CCC(=O)O)C(=O)N[C@@H](CC(C)C)C(=O)N[C@@H](C)C(=O)N[C@@H](CC(=O)O)C(=O)N[C@@H](CCCCN)C(=O)O)C(C)C [peptide 21] (Ac-WEFAAIMAVHGNELRELADK-OH; N-terminus and C-terminus assumed) | inhibition of DocSTm comparable to 1 | 19.3 ± 0.9 °C | 62.2 ± 0.2 °C | 62.3 °C | 62.0 °C | 62.4 °C | 0.41 nM | 0.412 nM | 0.365 nM | 496 ± 58 ×10^-6 s-1 | 1.252 ± 0.080 ×10^6 M-1 s-1 | 0.396 ± 0.052 nM | 23.4 ± 3 min
CC[C@H](C)[C@H](NC(=O)[C@H](C)NC(=O)[C@H](C)NC(=O)[C@H](Cc1ccccc1)NC(=O)[C@H](CCC(=O)O)NC(=O)[C@H](CC(=O)O)NC(=O)[C@H](CC(=O)O)NC(=O)[C@H](CCSC)NC(=O)[C@H](Cc1c[nH]c2ccccc12)NC(C)=O)C(=O)N[C@@H](CCSC)C(=O)N[C@@H](C)C(=O)N[C@H](C(=O)N[C@@H](Cc1c[nH]cn1)C(=O)NCC(=O)N[C@@H](CC(N)=O)C(=O)N[C@@H](C)C(=O)N[C@@H](CC(C)C)C(=O)N[C@@H](CCCNC(=N)N)C(=O)N[C@@H](CCC(=O)O)C(=O)N[C@@H](CC(C)C)C(=O)N[C@@H](C)C(=O)N[C@@H](CC(=O)O)C(=O)N[C@@H](CCCCN)C(=O)O)C(C)C [peptide 13] (Ac-WMDDEFAAIMAVHGNALRELADK-OH; C-terminus assumed) | inhibited DocSTm at similar concentrations to peptide 1 | 27.7 ± 0.9 °C | 70.6 ± 0.2 °C | 70.8 °C | 70.4 °C | 70.6 °C | 0.0475 nM | 0.0451 nM | 0.0352 nM | 112 ± 38 ×10^-6 s-1 | 2.705 ± 1.041 ×10^6 M-1 s-1 | 0.042 ± 0.021 nM | 102 ± 36 min
CC[C@H](C)[C@H](NC(=O)[C@H](C)NC(=O)[C@H](C)NC(=O)[C@H](Cc1ccccc1)NC(=O)[C@H](CCC(=O)O)NC(=O)[C@H](Cc1c[nH]c2ccccc12)NC(C)=O)C(=O)N[C@@H](CCSC)C(=O)N[C@@H](C)C(=O)N[C@H](C(=O)N[C@@H](Cc1c[nH]cn1)C(=O)NCC(=O)N[C@@H](CC(N)=O)C(=O)N[C@@H](CCC(=O)O)C(=O)N[C@@H](CC(C)C)C(=O)N[C@@H](CCCNC(=N)N)C(=O)N[C@@H](CCC(=O)O)C(=O)N[C@@H](CC(C)C)C(=O)N[C@@H](C)C(=O)O)C(C)C [peptide 22] (Ac-WEFAAIMAVHGNELRELA-OH; N-terminus and C-terminus assumed) | severe loss of inhibitory activity; also recorded: poor DocSTm inhibitors | 16.3 ± 0.9 °C | 59.2 ± 0.3 °C | 58.89 °C | 59.16 °C | 59.42 °C | 0.342 nM | 0.336 nM | 0.365 nM | 503 ± 16 ×10^-6 s-1 | 1.449 ± 0.085 ×10^6 M-1 s-1 |  | 22.8 ± 0.6 min
CC[C@H](C)[C@H](NC(=O)[C@H](C)NC(=O)[C@H](C)NC(=O)[C@H](Cc1ccccc1)NC(=O)[C@H](CCC(=O)O)NC(=O)[C@H](CC(=O)O)NC(=O)[C@H](CC(=O)O)NC(=O)[C@H](CCSC)NC(=O)[C@H](Cc1c[nH]c2ccccc12)NC(C)=O)C(=O)N[C@@H](CCSC)C(=O)N[C@@H](C)C(=O)N[C@@H](C)C(=O)N[C@@H](Cc1c[nH]cn1)C(=O)NCC(=O)N[C@@H](CC(N)=O)C(=O)N[C@@H](CCC(=O)O)C(=O)N[C@@H](CC(C)C)C(=O)N[C@@H](CCCNC(=N)N)C(=O)N[C@@H](CCC(=O)O)C(=O)N[C@@H](CC(C)C)C(=O)N[C@@H](C)C(=O)N[C@@H](CC(=O)O)C(=O)N[C@@H](CCCCN)C(=O)O [peptide 9] (Ac-WMDDEFAAIMAAHGNELRELADK-OH; C-terminus assumed) |  | 24.6 ± 1.2 °C | 67.5 ± 0.7 °C | 68.3 °C | 67.4 °C | 66.9 °C | 0.183 nM | 0.239 nM | 0.132 nM | 388 ± 57 ×10^-6 s-1 | 2.266 ± 0.942 ×10^6 M-1 s-1 | 0.171 ± 0.076 nM | 30 ± 4.2 min
CC[C@H](C)[C@H](NC(=O)[C@H](C)NC(=O)[C@H](C)NC(=O)[C@H](Cc1ccccc1)NC(=O)[C@H](CCC(=O)O)NC(=O)[C@H](CC(=O)O)NC(=O)[C@H](CC(=O)O)NC(=O)[C@H](CCSC)NC(=O)[C@H](Cc1c[nH]c2ccccc12)NC(C)=O)C(=O)N[C@@H](CCSC)C(=O)N[C@@H](C)C(=O)N[C@H](C(=O)N[C@@H](Cc1c[nH]cn1)C(=O)NCC(=O)N[C@@H](CC(N)=O)C(=O)N[C@@H](CCC(=O)O)C(=O)N[C@@H](CC(C)C)C(=O)N[C@@H](CCCNC(=N)N)C(=O)N[C@@H](C)C(=O)N[C@@H](CC(C)C)C(=O)N[C@@H](C)C(=O)N[C@@H](CC(=O)O)C(=O)N[C@@H](CCCCN)C(=O)O)C(C)C [peptide 16] (Ac-WMDDEFAAIMAVHGNELRALADK-OH; C-terminus assumed) |  | 30.7 ± 0.9 °C | 73.6 ± 0.2 °C | 73.5 °C | 73.5 °C | 73.9 °C | 0.0687 nM | 0.0703 nM | 0.0518 nM | 136 ± 41 ×10^-6 s-1 | 2.101 ± 0.333 ×10^6 M-1 s-1 | 0.065 ± 0.022 nM | 84 ± 24 min
